Experimental data taken from patent publication US20240360175A1, “PEPTIDE DERIVATIVES AND RELATED USES AS OREXIN AGONISTS” (Centessa Pharmaceuticals (UK) Limited, priority 2021, published 2024).
Numbered stars: 1 amine (or outer) side, 2 acyl side, 3 side chain; on linkers, the order of the positions; unused ones are H or OH. Square brackets hold non-standard residues; d marks the D form. Peptide text beside a SMILES is read from it. * marks the point of attachment. Malonyl(2,2-Me2,histaminyl) = CC(C)(C(=O)NCCc1cnc[nH]1)C(=O)*; Gly(N-CH2CH2(4-MeOPh)) = COc1ccc(CCNCC(=O)O)cc1; hArg(Et2) = CCN=C(NCC)NCCCC[C@H](N)C(=O)O; Phe(3-Br) = N[C@@H](Cc1cccc(Br)c1)C(=O)O; X1 = O=C(CN(CCc1ccc2ccccc2c1)[*:1])[*:2]; X2 = O=C([C@@H](N[*:1])c1cccc(O)c1)[*:2]; X6 = O=C(CN(CCc1cccc2ccccc12)[*:1])[*:2]; X3 = NCCc1cccc(CCN(CC(=O)[*:2])[*:1])c1; Gly(NCH2CH2Ph) = O=C(O)CNCCc1ccccc1; PEG6 = NCCOCCOCCOCCOCCOCCOCCC(=O)O; Hyp = O=C(O)[C@@H]1C[C@@H](O)CN1; Hpg = N[C@H](C(=O)O)c1ccc(O)cc1; NMeN = CN[C@@H](CC(N)=O)C(=O)O; X5 = COCCOCCOCCOCCOCCOCCC(=O)*; Aoc(2) = CCCCCC[C@H](N)C(=O)O; Phg = N[C@H](C(=O)O)c1ccccc1; Nle = CCCC[C@H](N)C(=O)O

What was measured:
[1] = target: T1, human orexin type 1 receptor (hOX1R) (Homo sapiens, UniProt O43613); assay: Measurement of orexin type 1 receptor agonist activity (FLIPR TETRA intracellular Ca2+ fluorescence); assay type: cell-based; conditions: CHO cells expressing hOX1R; agonist activity, Ca2+ fluorescence; read-out: hOX1 pEC50 (converted)
T1 construct: expressed in transfected cells
T1 sequence (O43613 1-425): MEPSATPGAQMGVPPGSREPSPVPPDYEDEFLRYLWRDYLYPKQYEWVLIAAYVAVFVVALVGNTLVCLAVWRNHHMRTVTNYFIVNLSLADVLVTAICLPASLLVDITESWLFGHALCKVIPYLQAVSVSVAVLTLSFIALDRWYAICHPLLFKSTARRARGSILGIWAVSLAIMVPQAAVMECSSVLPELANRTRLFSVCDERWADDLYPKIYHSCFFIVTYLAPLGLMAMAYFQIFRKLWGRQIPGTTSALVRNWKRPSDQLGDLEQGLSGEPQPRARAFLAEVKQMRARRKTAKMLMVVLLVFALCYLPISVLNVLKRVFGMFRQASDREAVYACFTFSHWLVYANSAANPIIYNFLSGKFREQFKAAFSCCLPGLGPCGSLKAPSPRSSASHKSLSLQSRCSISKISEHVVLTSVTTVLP
Protocol: (§1) Stable cell line generation. Obtainment of cells stably expressing either human orexin type 2 or human orexin type 1 receptor: to obtain a stable cell line the Orexin receptor cDNA was inserted into pcDNA3.1(+) plasmid vector and clones identified by G418 drug resistance selection. […] A single clone for OX2R—CHO and OX1R—CHO were grown in bulk and frozen to generate a cell bank for routine screening.
(§2) Measurement of orexin type 1 receptor agonist activity. Chinese hamster ovary (CHO) cells expressing human orexin type 1 receptor (hOX1R) were seeded in each well of 384 well black clear bottom plates (BD Flacon) at 10,000 cells per well and cultured for 24 h in an Ham's F12 (Gibco) medium containing 10% fetal calf serum (Sigma Aldrich) under the conditions of 37° C., 5% CO2. After removal of the medium, 50 μL of assay buffer 1 (0.1% bovine serum albumin (Sigma Aldrich), 20 mM HEPES (Molecular Dimensions), […] probenecid (Sigma Aldrich), 1× Calcium 5 dye (Molecular Devices) in Hank's balanced salt solution (Invitrogen)) was added, and the cells were incubated for 60 min under the conditions of 37° C., 5% CO2. A test peptide was dissolved in dimethyl sulfoxide (Sigma Aldrich) to 1 mM, and then diluted with assay buffer 2 (20 mM HEPES, Hank's balanced salt solution, 0.1% bovine serum albumin). For the reaction, a test peptide solution (10 μl) was added using Fluorescent Imaging Plate Reader TETRA (FLIPR TETRA: manufactured by Molecular Devices), a fluorescence value (excitation wavelength 488 nm, measurement wavelength 570 nm) of each well was measured every one second for 2 min, and the agonist activity was determined using the area of the fluorescence value as an indicator of intracellular Ca^2+ concentration. The agonist activity of the test peptide was calculated assuming that the fluorescence value of the well added with only the dilution buffer was 0% and the fluorescence value of the well added with 10 nM human orexin A (Tocris) buffer was 100%. As used herein, Emax indicates the value at 1 μM concentration when orexin A is converted to a full agonist (maximum value of agonist activity: 100%).

[2] = target: T2, human orexin type 2 receptor (hOX2R) (Homo sapiens, UniProt O43614); assay: Measurement of orexin type 2 receptor agonist activity (FLIPR TETRA intracellular Ca2+ fluorescence); assay type: cell-based; conditions: CHO cells expressing hOX2R; agonist activity, Ca2+ fluorescence; read-out: hOX2 pEC50 (converted)
T2 construct: expressed in transfected cells
T2 sequence (O43614 1-444): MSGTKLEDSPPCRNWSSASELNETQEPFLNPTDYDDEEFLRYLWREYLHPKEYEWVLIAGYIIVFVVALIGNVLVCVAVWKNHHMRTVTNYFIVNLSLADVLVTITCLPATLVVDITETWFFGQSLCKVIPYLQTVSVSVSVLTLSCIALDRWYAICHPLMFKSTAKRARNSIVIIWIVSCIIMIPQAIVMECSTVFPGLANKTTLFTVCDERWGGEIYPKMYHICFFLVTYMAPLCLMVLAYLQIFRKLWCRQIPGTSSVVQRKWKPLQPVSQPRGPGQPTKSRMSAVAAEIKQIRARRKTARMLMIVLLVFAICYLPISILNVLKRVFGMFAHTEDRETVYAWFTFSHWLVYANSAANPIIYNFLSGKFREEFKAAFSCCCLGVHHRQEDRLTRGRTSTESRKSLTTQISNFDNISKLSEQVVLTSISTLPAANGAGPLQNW
Protocol: as §1
as §2, with “type 2” for “type 1”, “receptor (hOX2R)” for “receptor (hOX1R) were”

Compound	EC50 [1] [nM]	EC50 [2] [nM]
CC[C@H](C)[C@H](NC(=O)CNC(=O)[C@@H](NC(=O)[C@H](C)NC(=O)[C@@H]1C[C@@H](O)CN1C(=O)[C@H](CC(N)=O)NC(=O)CN(CCc1ccc2ccccc2c1)C(=O)[C@@H](N)CCCNC(=N)N)c1ccccc1)C(=O)N[C@@H](CC(C)C)C(=O)N[C@H](C(=O)N[C@@H](Cc1cccc(Br)c1)C(N)=O)[C@@H](C)O [Peptide 13] (H-R[X1]N[Hyp]A[Phg]GILT[Phe(3-Br)]-NH2)	1 to 10	< 0.1
CCCCCC[C@H](NC(=O)[C@@H](NC(=O)[C@H](CC(C)C)NC(=O)[C@@H](NC(=O)CNC(=O)[C@@H](NC(=O)[C@H](C)NC(=O)[C@@H]1C[C@@H](O)CN1C(=O)[C@H](CC(N)=O)NC(=O)CN(CCc1ccccc1)C(=O)[C@@H](N)CCCNC(=N)N)c1ccccc1)[C@@H](C)CC)[C@@H](C)O)C(N)=O [Peptide 14] (H-R[Gly(NCH2CH2Ph)]N[Hyp]A[Phg]GILT[Aoc(2)]-NH2; N-terminus assumed)	> 10	< 0.1
CCCCCC[C@H](NC(=O)[C@@H](NC(=O)[C@H](CC(C)C)NC(=O)[C@@H](NC(=O)CNC(=O)[C@@H](NC(=O)[C@H](C)NC(=O)[C@@H]1C[C@@H](O)CN1C(=O)[C@H](CC(N)=O)NC(=O)CN(CCc1ccccc1)C(=O)[C@H](CCCCN/C(=N/CC)NCC)NC(=O)C(C)(C)C(=O)NCCc1cnc[nH]1)c1ccccc1)[C@@H](C)CC)[C@@H](C)O)C(N)=O [Peptide 15] ({Malonyl(2,2-Me2,histaminyl)}-[hArg(Et2)][Gly(NCH2CH2Ph)]N[Hyp]A[Phg]GILT[Aoc(2)]-NH2)	> 10	< 0.1
CC[C@H](C)[C@H](NC(=O)CNC(=O)[C@@H](NC(=O)[C@H](C)NC(=O)[C@@H]1C[C@@H](O)CN1C(=O)[C@H](CC(N)=O)NC(=O)CN(CCc1cccc2ccccc12)C(=O)[C@@H](N)CCCNC(=N)N)c1ccccc1)C(=O)N[C@@H](CC(C)C)C(=O)N[C@H](C(=O)N[C@@H](Cc1cccc(Br)c1)C(N)=O)[C@@H](C)O [Peptide 16] (H-R[X6]N[Hyp]A[Phg]GILT[Phe(3-Br)]-NH2)	1 to 10	< 0.1
CCCCCC[C@H](NC(=O)[C@@H](NC(=O)[C@H](CC(C)C)NC(=O)[C@@H](NC(=O)CNC(=O)[C@@H](NC(=O)[C@H](C)NC(=O)[C@H](Cc1c[nH]cn1)NC(=O)[C@H](CC(N)=O)NC(=O)CN(CCc1ccccc1)C(=O)[C@@H](N)CCCCN/C(=N/CC)NCC)c1cccc(O)c1)[C@@H](C)CC)[C@@H](C)O)C(N)=O [Peptide 17] (H-[hArg(Et2)][Gly(NCH2CH2Ph)]NHA[X2]GILT[Aoc(2)]-NH2)	> 10	< 0.1
CCCCCC[C@H](NC(=O)[C@@H](NC(=O)[C@H](CC(C)C)NC(=O)[C@@H](NC(=O)CNC(=O)[C@@H](NC(=O)[C@H](C)NC(=O)[C@H](Cc1c[nH]cn1)NC(=O)[C@H](CC(N)=O)NC(=O)CN(CCc1ccc(OC)cc1)C(=O)[C@@H](N)CCCCN/C(=N/CC)NCC)c1ccccc1)[C@@H](C)CC)[C@@H](C)O)C(N)=O [Peptide 18] (H-[hArg(Et2)][Gly(N-CH2CH2(4-MeOPh))]NHA[Phg]GILT[Aoc(2)]-NH2)	> 10	< 0.1
CCCCCC[C@H](NC(=O)[C@@H](NC(=O)[C@H](CC(C)C)NC(=O)[C@@H](NC(=O)CNC(=O)[C@@H](NC(=O)[C@H](C)NC(=O)[C@@H]1C[C@@H](O)CN1C(=O)[C@H](CC(N)=O)N(C)C(=O)CN(CCc1cccc(CCN)c1)C(=O)[C@@H](N)CCCNC(=N)N)c1ccccc1)[C@@H](C)CC)[C@@H](C)O)C(N)=O [Peptide 19] (H-R[X3][NMeN][Hyp]A[Phg]GILT[Aoc(2)]-NH2)	> 10	< 0.1
CCCCCC[C@H](NC(=O)[C@@H](NC(=O)[C@H](CC(C)C)NC(=O)[C@@H](NC(=O)CNC(=O)[C@@H](NC(=O)[C@H](C)NC(=O)[C@H](Cc1c[nH]cn1)NC(=O)[C@H](CC(N)=O)NC(=O)CN(CCc1ccccc1)C(=O)[C@@H](N)CCCCN/C(=N/CC)NCC)c1ccc(O)cc1)[C@@H](C)CC)[C@@H](C)O)C(N)=O [Peptide 20] (H-[hArg(Et2)][Gly(NCH2CH2Ph)]NHA[Hpg]GILT[Aoc(2)]-NH2)	> 10	< 0.1
CCCC[C@H](NC(=O)[C@@H](NC(=O)[C@H](CC(C)C)NC(=O)[C@@H](NC(=O)CNC(=O)[C@@H](NC(=O)[C@H](C)NC(=O)[C@H](Cc1c[nH]cn1)NC(=O)[C@H](CC(N)=O)NC(=O)CN(CCc1ccccc1)C(=O)[C@H](CCCNC(=N)N)NC(=O)CCOCCOCCOCCOCCOCCOCCN)c1ccccc1)[C@@H](C)CC)[C@@H](C)O)C(N)=O [Peptide 21] (H-[PEG6]R[Gly(NCH2CH2Ph)]NHA[Phg]GILT[Nle]-NH2)	> 10	< 0.1
CCCCCC[C@H](NC(=O)[C@@H](NC(=O)[C@H](CC(C)C)NC(=O)[C@@H](NC(=O)CNC(=O)[C@@H](NC(=O)[C@H](C)NC(=O)[C@@H]1C[C@@H](O)CN1C(=O)[C@H](CC(N)=O)NC(=O)CN(CCc1ccccc1)C(=O)[C@H](CCCNC(=N)N)NC(=O)CCOCCOCCOCCOCCOCCOC)c1ccccc1)[C@@H](C)CC)[C@@H](C)O)C(N)=O [Peptide 22] (X5-R[Gly(NCH2CH2Ph)]N[Hyp]A[Phg]GILT[Aoc(2)]-NH2)	> 10	< 0.1
CCCCCC[C@H](NC(=O)[C@@H](NC(=O)[C@H](CC(C)C)NC(=O)[C@@H](NC(=O)CNC(=O)[C@@H](NC(=O)[C@H](C)NC(=O)[C@H](CCC(N)=O)NC(=O)[C@H](CC(N)=O)NC(=O)CN(CCc1ccccc1)C(=O)[C@@H](N)CCCCN/C(=N/CC)NCC)c1ccc(O)cc1)[C@@H](C)CC)[C@@H](C)O)C(N)=O [Peptide 23] (H-[hArg(Et2)][Gly(NCH2CH2Ph)]NQA[Hpg]GILT[Aoc(2)]-NH2)	> 10	< 0.1
CCCCCC[C@H](NC(=O)[C@@H](NC(=O)[C@H](CC(C)C)NC(=O)[C@@H](NC(=O)CNC(=O)[C@@H](NC(=O)[C@H](C)NC(=O)[C@H](Cc1c[nH]cn1)NC(=O)[C@H](CC(N)=O)NC(=O)CN(CCc1ccccc1)C(=O)[C@@H](N)CCCCNC(=NCC)NCC)c1ccccc1)[C@@H](C)CC)[C@@H](C)O)C(N)=O [Peptide 24] (H-[hArg(Et2)][Gly(NCH2CH2Ph)]NHA[Phg]GILT[Aoc(2)]-NH2; N-terminus assumed)	> 10	< 0.1
